Values quoted from earlier work, collected in patent publication US10047050B2, “3,4-di-substituted pyridine compound, methods of using and compositions comprising the same” (ARDEA BIOSCIENCES, INC., priority 2011, dated 2018).

Conditions: cited from earlier work
[1] = individuals treated with probenecid

Row | Structure (SMILES) | incidence of side effects (of all individuals treated with the drug) [%] | individuals who develop intolerance [1] | individuals who fail to achieve reduction of serum uric acid levels <6 mg/dL [1]
1 | Oc1ncnc2[nH]ncc12 [Allopurinol, allopurinol] | 20 |  | 
2 | CCCN(CCC)S(=O)(=O)c1ccc(C(=O)O)cc1 [probenecid] |  | one-third | 25-50%
